Several values for one entry are separate records, joined by “and”; a condition that tells them apart may be missing. Equal values may be shown once.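 96-well plates; 48 h exposure; 5 concentrations. Endpoints by linear interpolation between flanking doses. Not reached: highest tested concentration assigned. Here, GI50 denotes the concentration required for 50% inhibition of growth.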 Activity calls are given as the source filed them. Cut-off read from the data, not from the text of the source: active = GI50 up to about 1.1 µM and inactive = higher.
Key:
Assay in all cases: growth of human tumour cells (NCI), 48 h
[1] = tested on: SK-MEL-2
[2] = tested on: PC-3
[3] = tested on: MCF7
[4] = tested on: MOLT-4
[5] = tested on: SF-295
[6] = tested on: RXF 393
[7] = tested on: HL-60
[8] = tested on: MDA-N
[9] = tested on: Hs-578T
[10] = tested on: HOP-92
[11] = tested on: OVCAR-3
[12] = tested on: A498
[13] = tested on: IGROV-1
[14] = tested on: KM12
[15] = tested on: SNB-19
[16] = tested on: 786-0
[17] = tested on: NCI-H23
[18] = tested on: OVCAR-4
[19] = tested on: T47D
[20] = tested on: K562

Row | SMILES | GI50 [1] | GI50 [2] | GI50 [3] | GI50 [4] | GI50 [5] | GI50 [6] | GI50 [7] | GI50 [8] | GI50 [9] | GI50 [10] | GI50 [11] | GI50 [12] | GI50 [13] | GI50 [14] | GI50 [15] | GI50 [16] | GI50 [17] | GI50 [18] | GI50 [19] | GI50 [20]
1 | Cc1c(N)nc([C@H](CC(N)=O)NC[C@H](N)C(N)=O)nc1C(=O)N[C@H](C(=O)N[C@H](C)[C@@H](O)CC(=O)N[C@H](C(=O)NC(O[C@@H]1O[C@@H](C)[C@@H](N)[C@@H](O)[C@H]1O)C(O)c1nc(-c2nc(C(=O)NCCC[S+](C)C)cs2)cs1)[C@@H](C)O)[C@H](O[C@@H]1O[C@@H](CO)[C@@H](O)[C@H](O)[C@@H]1O[C@H]1O[C@H](CO)[C@@H](O)[C@H](OC(N)=O)[C@@H]1O)c1c[nH]cn1 (some centres not stated) | > 100 µM (inactive) | 65 µM (inactive) | 39.4 µM (inactive) | 38.6 µM (inactive) | 5.46 µM (inactive) | 25.8 µM (inactive) | > 100 µM (inactive) | > 100 µM (inactive) | 6.17 µM (inactive) | 24.6 µM (inactive) | 95.3 µM (inactive) | 67.1 µM (inactive) | 33.3 µM (inactive) | 97.1 µM (inactive) | > 100 µM (inactive) | 13.9 µM (inactive) | > 100 µM (inactive) | > 100 µM (inactive) | > 100 µM (inactive) | –
2 | Oc1ccc(O)c(Cc2ccccc2)c1 | 18.7 µM (inactive) | 27.9 µM (inactive) | 15 µM (inactive) | 6.7 µM (inactive) | 56.1 µM (inactive) | – | 1.52 µM (inactive) | 18 µM (inactive) | 31.9 µM (inactive) | 16.3 µM (inactive) | 1.07 µM (active) | 43.9 µM (inactive) | – | 19.1 µM (inactive) | 53.1 µM (inactive) | 14.7 µM (inactive) | 26.4 µM (inactive) | 14.2 µM (inactive) | 0.0887 µM (active) | 10.6 µM (inactive)
3 | O=C1Nc2ccccc2/C1=N/NC(=S)Nc1ccc([N+](=O)[O-])cc1 | 4.25 µM (inactive) | 3.17 µM (inactive) | 7.93 µM (inactive) | 2.28 µM (inactive) | 6.64 µM (inactive) | – | > 100 µM (inactive) | 11.4 µM (inactive) | 15.6 µM (inactive) | 13.2 µM (inactive) | 13.4 µM (inactive) | – | 10.7 µM (inactive) | 10.8 µM (inactive) | 10.7 µM (inactive) | 4.81 µM (inactive) | 13.8 µM (inactive) | 18.6 µM (inactive) | 10.4 µM (inactive) | 2.88 µM (inactive)
4 | CO[C@]12S[C@@H]3CCCC[C@@]31C(C)(C)C(=O)N2c1ccccc1 | 26.8 µM (inactive) | 23.6 µM (inactive) | 27.4 µM (inactive) | 21.7 µM (inactive) | 16 µM (inactive) | 49.5 µM (inactive) | 14.6 µM (inactive) | 42.2 µM (inactive) | 75 µM (inactive) | 38 µM (inactive) | 15.2 µM (inactive) | > 100 µM (inactive) | 46.2 µM (inactive) | 36.7 µM (inactive) | > 100 µM (inactive) | 43.2 µM (inactive) | 28.8 µM (inactive) | – | 30.7 µM (inactive) | 29.7 µM (inactive)
5 | O=[N+]([O-])c1ccc2c(c1)c(S(=O)(=O)O)cc1nonc12 | > 100 µM (inactive) | > 100 µM (inactive) | > 100 µM (inactive) | > 100 µM (inactive) | > 100 µM (inactive) | – | > 100 µM (inactive) | > 100 µM (inactive) | > 100 µM (inactive) | > 100 µM (inactive) | > 100 µM (inactive) | > 100 µM (inactive) | > 100 µM (inactive) | > 100 µM (inactive) | > 100 µM (inactive) | > 100 µM (inactive) | > 100 µM (inactive) | > 100 µM (inactive) | > 100 µM (inactive) | > 100 µM (inactive)
6 | CCCC1(N)CC(OC)OC(C)C1O (configuration not stated) | > 100 µM (inactive) | > 100 µM (inactive) | > 100 µM (inactive) | > 100 µM (inactive) | > 100 µM (inactive) | > 100 µM (inactive) | > 100 µM (inactive) | > 100 µM (inactive) | > 100 µM (inactive) | > 100 µM (inactive) | > 100 µM (inactive) | > 100 µM (inactive) | > 100 µM (inactive) | > 100 µM (inactive) | > 100 µM (inactive) | > 100 µM (inactive) | > 100 µM (inactive) | – | > 100 µM (inactive) | > 100 µM (inactive)
7 | COc1cc(C(O)c2ccc3c(c2)OCO3)cc(OC)c1OC (configuration not stated) | > 100 µM (inactive) | > 100 µM (inactive) | > 100 µM (inactive) | > 100 µM (inactive) | > 100 µM (inactive) | – | > 100 µM (inactive) | > 100 µM (inactive) | > 100 µM (inactive) | > 100 µM (inactive) | > 100 µM (inactive) | > 100 µM (inactive) | > 100 µM (inactive) | > 100 µM (inactive) | > 100 µM (inactive) | > 100 µM (inactive) | > 100 µM (inactive) | > 100 µM (inactive) | 37.1 µM (inactive) | > 100 µM (inactive)
8 | CC(C)/C(Cl)=N/OC(NC(=O)Nc1ccc(Cl)c(Cl)c1)(C(F)(F)F)C(F)(F)F | – | 13.6 µM (inactive) | 19.4 µM (inactive) | 3.2 µM (inactive) | 19.8 µM (inactive) | 3.42 µM (inactive) | 2.54 µM (inactive) | 16.4 µM (inactive) | 28.6 µM (inactive) | 10.4 µM (inactive) | 5.9 µM (inactive) | 18.2 µM (inactive) | 16.2 µM (inactive) | 18.2 µM (inactive) | 20.2 µM (inactive) | 8.77 µM (inactive) | 17.8 µM (inactive) | 13 µM (inactive) | 7.64 µM (inactive) | 3.05 µM (inactive)
9 | O=c1oc2c(Cl)cc(Cl)cc2cc1-c1cn2c(n1)sc1ccccc12 | > 100 µM (inactive) | 47.1 µM (inactive) | 44.1 µM (inactive) | 20.4 µM (inactive) | 59.2 µM (inactive) | 31.2 µM (inactive) | 23.9 µM (inactive) | 38.6 µM (inactive) | > 100 µM (inactive) | 56.1 µM (inactive) | 31.4 µM (inactive) | – | 44.1 µM (inactive) | > 100 µM (inactive) | > 100 µM (inactive) | 32.9 µM (inactive) | 95.5 µM (inactive) | 47.6 µM (inactive) | 49.8 µM (inactive) | 20.2 µM (inactive)
10 | CCOC(=O)NN(C(=O)OCC)C(C(=O)c1ccccc1)N(NC(=O)OCC)C(=O)OCC | – | > 100 µM (inactive) | > 100 µM (inactive) | > 100 µM (inactive) | > 100 µM (inactive) | > 100 µM (inactive) | > 100 µM (inactive) | > 100 µM (inactive) | > 100 µM (inactive) | > 100 µM (inactive) | > 100 µM (inactive) | > 100 µM (inactive) | > 100 µM (inactive) | > 100 µM (inactive) | > 100 µM (inactive) | > 100 µM (inactive) | > 100 µM (inactive) | > 100 µM (inactive) | > 100 µM (inactive) | > 100 µM (inactive)
11 | O=C(/C=C/c1ccccc1)c1ccccn1 | 19.2 µM (inactive) | 19.1 µM (inactive) and 21.1 µM (inactive) | 16 µM (inactive) | 23.8 µM (inactive) | 24 µM (inactive) and 18.4 µM (inactive) | 19.2 µM (inactive) and 18.6 µM (inactive) | – | 16.9 µM (inactive) and 27.2 µM (inactive) | 22.6 µM (inactive) | 19.1 µM (inactive) | 12.7 µM (inactive) and 16.4 µM (inactive) | 13 µM (inactive) and 17.5 µM (inactive) | 10.5 µM (inactive) and 17.4 µM (inactive) | 19.1 µM (inactive) and 14.4 µM (inactive) | – | 12.3 µM (inactive) and 17.2 µM (inactive) | 17.9 µM (inactive) and 17.5 µM (inactive) | 17.3 µM (inactive) and 20.6 µM (inactive) | 23.8 µM (inactive) and 13 µM (inactive) | –
12 | O=C1c2ccccc2-c2c1c(-c1ccccc1)c1n2C2(C(=O)c3ccccc3C2=O)C2C(=O)N(c3ccccc3)C(=O)C12 (configuration not stated) | 22.6 µM (inactive) | 26.6 µM (inactive) | 24.8 µM (inactive) | 40.6 µM (inactive) | 34.4 µM (inactive) | 17.6 µM (inactive) | – | 24.7 µM (inactive) | 17.8 µM (inactive) | 23.8 µM (inactive) | 24.3 µM (inactive) | 28.1 µM (inactive) | 32.3 µM (inactive) | 19.8 µM (inactive) | 27.7 µM (inactive) | 23.4 µM (inactive) | 17.4 µM (inactive) | 31.4 µM (inactive) | 16.9 µM (inactive) | –
13 | Cc1cn(C(CO)OC(CO)CN(O)C2C3CC4CC(C3)CC2C4)c(=O)[nH]c1=O (configuration not stated) | > 100 µM (inactive) | > 100 µM (inactive) | > 100 µM (inactive) | > 100 µM (inactive) | > 100 µM (inactive) | – | > 100 µM (inactive) | > 100 µM (inactive) | > 100 µM (inactive) | > 100 µM (inactive) | – | > 100 µM (inactive) | > 100 µM (inactive) | > 100 µM (inactive) | > 100 µM (inactive) | > 100 µM (inactive) | > 100 µM (inactive) | > 100 µM (inactive) | > 100 µM (inactive) | > 100 µM (inactive)
14 | COC1CN(C)/C(=N\c2cccc3ccccc23)S1 (configuration not stated) | – | > 10 µM (inactive) | > 10 µM (inactive) | > 10 µM (inactive) | 2.75 µM (inactive) | – | > 10 µM (inactive) | > 10 µM (inactive) | > 10 µM (inactive) | > 10 µM (inactive) | – | – | > 10 µM (inactive) | > 10 µM (inactive) | > 10 µM (inactive) | > 10 µM (inactive) | > 10 µM (inactive) | > 10 µM (inactive) | > 10 µM (inactive) | > 10 µM (inactive)

Reference: ChEMBL document CHEMBL1201862, “PubChem BioAssay data set” (2004)
